Our source for the EC50 and Ki values is US9718854B2, “Selective glycosidase inhibitors and uses thereof” (priority 2011, dated 2017).

Where two headings read alike, the source gives them in different places.

One experiment addresses O-GlcNAcase (Rattus norvegicus (Rat), UniProt Q8VIJ5). Kind of experiment: Cell-based ELISA of O-GlcNAcylated protein (RL-2 antibody) for cellular O-GlcNAcase inhibition. The text has this: Assay for Determination of Cellular Activity for Compounds that Inhibit O-GlcNAcase Activity
Inhibition of O-GlcNAcase, which removes O-GlcNAc from cellular proteins, results in an increase in the level of O-GlcNAcylated protein in cells. An increase in O-GlcNAcylated protein can be measured by an antibody, such as RL-2, that binds to O-GlcNAcylated protein. The amount of O-GlcNAcylated protein:RL2 antibody interaction can be measured by enzyme linked immunosorbant assay (ELISA) procedures.
Compounds to be tested were dissolved in DMSO, either 2 or 10 mM stock solution, and then diluted with DMSO and water in a two-step process using a Tecan workstation. […] If desired, the total protein concentration of samples was determined using 20 μL of the sample using the BCA method. […]
The amount of O-GlcNAcylated protein, as detected by the ELISA assay, was plotted for each concentration of test compound using standard curve fitting algorithms for sigmoidal dose response curves. The values for a four parameter logistic curve fit of the data were determined, with the inflection point of the curve being the potency value for the test compound.
A general note: An ELISA detects its analyte on a solid surface through an enzyme-linked reagent.

Another experiment has as its target human O-GlcNAcase (Homo sapiens (Human), UniProt O60502). Description: biochemical. The following applies: purified human O-GlcNAcase, 4-methylumbelliferyl N-acetyl-β-D-glucosaminide substrate, pH 7.0, Cheng-Prusoff; read-out: Fluorescence-based hOGA Ki. How it is done:
Assay for Determination of KI Values for Inhibition of O-GlcNAcase Activity
Experimental Procedure for Kinetic Analyses:
Enzymatic reactions were carried out in a reaction containing 50 mM NaH2PO4, 100 mM NaCl and 0.1% BSA (pH 7.0) using 2 mM 4-Methylumbelliferyl N-acetyl-β-D-glucosaminide dihydrate (Sigma M2133) dissolved in ddH2O, as a substrate. The amount of purified human O-GlcNAcase enzyme used in the reaction was 0.7 nM. Test compound of varying concentrations was added to the enzyme prior to initiation of the reaction. The reaction was performed at room temperature in a 96-well plate and was initiated with the addition of substrate. […] The slope of product production was determined for each concentration of compound tested and plotted, using standard curve fitting algorithms for sigmoidal dose response curves. The values for a four parameter logistic curve fit of the data were determined.

O-GlcNAcase, sequence (Q8VIJ5 whole entry): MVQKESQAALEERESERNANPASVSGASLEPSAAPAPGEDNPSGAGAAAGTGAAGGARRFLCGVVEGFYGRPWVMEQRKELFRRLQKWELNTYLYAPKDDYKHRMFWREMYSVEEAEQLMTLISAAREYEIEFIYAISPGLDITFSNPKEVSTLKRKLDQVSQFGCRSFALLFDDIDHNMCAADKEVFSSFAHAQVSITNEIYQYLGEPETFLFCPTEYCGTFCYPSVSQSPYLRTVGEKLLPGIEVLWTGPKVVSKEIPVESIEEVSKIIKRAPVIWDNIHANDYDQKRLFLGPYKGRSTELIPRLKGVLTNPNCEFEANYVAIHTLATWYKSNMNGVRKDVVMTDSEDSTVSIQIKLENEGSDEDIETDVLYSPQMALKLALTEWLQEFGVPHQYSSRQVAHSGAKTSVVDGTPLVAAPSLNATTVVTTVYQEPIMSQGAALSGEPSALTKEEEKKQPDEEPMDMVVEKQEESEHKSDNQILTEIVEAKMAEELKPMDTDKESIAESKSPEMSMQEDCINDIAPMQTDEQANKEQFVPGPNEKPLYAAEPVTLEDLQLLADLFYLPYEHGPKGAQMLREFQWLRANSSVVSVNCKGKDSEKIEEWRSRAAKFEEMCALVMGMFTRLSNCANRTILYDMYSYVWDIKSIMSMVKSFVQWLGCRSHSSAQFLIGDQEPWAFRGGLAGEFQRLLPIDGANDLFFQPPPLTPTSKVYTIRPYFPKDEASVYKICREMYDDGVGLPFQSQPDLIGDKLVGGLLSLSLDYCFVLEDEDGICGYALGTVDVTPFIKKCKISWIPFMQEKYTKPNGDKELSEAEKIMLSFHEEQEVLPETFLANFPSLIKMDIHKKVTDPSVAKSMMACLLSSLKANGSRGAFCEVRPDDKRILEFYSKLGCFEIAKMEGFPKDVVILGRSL
human O-GlcNAcase, sequence (O60502 whole entry): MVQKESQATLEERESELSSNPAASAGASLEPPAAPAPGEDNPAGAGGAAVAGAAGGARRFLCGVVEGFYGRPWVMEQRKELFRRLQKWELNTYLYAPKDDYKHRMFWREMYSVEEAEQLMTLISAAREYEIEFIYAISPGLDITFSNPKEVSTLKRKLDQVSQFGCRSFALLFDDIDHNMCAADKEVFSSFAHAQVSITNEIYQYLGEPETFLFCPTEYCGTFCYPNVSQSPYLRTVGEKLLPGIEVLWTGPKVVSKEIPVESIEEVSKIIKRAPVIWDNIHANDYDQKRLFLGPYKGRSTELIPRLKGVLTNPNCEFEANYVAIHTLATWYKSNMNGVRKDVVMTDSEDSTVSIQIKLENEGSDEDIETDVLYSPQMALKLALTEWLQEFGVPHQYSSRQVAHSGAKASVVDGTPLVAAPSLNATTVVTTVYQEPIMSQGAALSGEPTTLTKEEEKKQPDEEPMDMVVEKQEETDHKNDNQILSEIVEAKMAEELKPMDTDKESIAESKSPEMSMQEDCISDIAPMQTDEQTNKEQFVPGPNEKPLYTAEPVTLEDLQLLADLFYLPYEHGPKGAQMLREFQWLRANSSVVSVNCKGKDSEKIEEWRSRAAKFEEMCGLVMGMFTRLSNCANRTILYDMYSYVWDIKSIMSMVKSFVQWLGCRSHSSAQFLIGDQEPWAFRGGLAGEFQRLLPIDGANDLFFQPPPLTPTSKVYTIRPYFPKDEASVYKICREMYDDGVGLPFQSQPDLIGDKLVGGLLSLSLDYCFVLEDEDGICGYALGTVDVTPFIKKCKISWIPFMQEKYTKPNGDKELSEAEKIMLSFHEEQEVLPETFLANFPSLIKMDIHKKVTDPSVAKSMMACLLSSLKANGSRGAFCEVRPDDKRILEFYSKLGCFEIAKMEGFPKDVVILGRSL

The EC50 is the concentration giving half of the maximal effect. Turning to `CNC1=N[C@@H]2[C@@H](O)[C@H](O)[C@@H](COC(=O)N(C)C)O[C@@H]2S1` [Example 9, ((3aR,5R,6S,7R,7aR)-6,7-dihydroxy-2-(methylamino)-5,6,7,7a-tetrahydro-3aH-pyrano[3,2-d]thiazol-5-yl)methyl dimethylcarbamate], at O-GlcNAcase (rat PC-12 cells, 24 h treatment, O-GlcNAcylated protein detected with RL-2 antibody, read-out: Cell-based ELISA EC50), the EC50 came out at 212 nM.
On to `CNC1=N[C@@H]2[C@@H](O)[C@H](O)[C@@H](CNC3CCCC3)O[C@@H]2S1` [Example 37, (3aR,5R,6S,7R,7aR)-5-((cyclopentylamino)methyl)-2-(methylamino)-5,6,7,7a-tetrahydro-3aH-pyrano[3,2-d]thiazole-6,7-diol], for which the midpoint of the response at O-GlcNAcase, the EC50, lay at 3.7 nM.
The term Ki denotes a dissociation constant, usually derived from enzyme kinetics or from competition with a known ligand. With `CNC1=N[C@@H]2[C@@H](O)[C@H](O)[C@@H](CNCC#N)O[C@@H]2S1` [Example 53, 2-((((3aR,5R,6S,7R,7aR)-6,7-dihydroxy-2-(methylamino)-5,6,7,7a-tetrahydro-3aH-pyrano[3,2-d]thiazol-5-yl)methyl)amino)acetonitrile], the Ki on human O-GlcNAcase was 5.4 nM.
